Assay results: patent US20050042747A1, “Hivgp120-induced bob/gpr15 activation” (priority 2001, published 2005)

Columns and labels:
[1] = test system: HT-29-D4 cells; assay: Transepithelial resistance (TEER) of differentiated HT-29-D4 cells; assay type: cell-based, human; conditions: for TEER: 50 nM, serum-containing medium, mean SD of 4 experiments; for decrease of transepithelial resistance: after 16 hr
[2] = GalCer-gp120 interactions at the air-water interface (surface pressure); assay type: binding; conditions: gp120 5 nM in aqueous subphase
Experimental: A monomolecular film of GalCer was prepared at the air-water interface and gp120 purified from either IIIB (full squares), SEN (open circles) or 89.6 (full circles) isolates was added in the aqueous subphase at a concentration of 5 nM. The kinetics of the surface pressure increase induced by the viral glycoproteins are shown.
Galactosylceramide with an α-hydroxylated fatty acid (referred to as GalCer throughout this study) was either prepared from bovine brain (Sigma) or purified from HT-29-D4 membrane rafts (Fantini et al., 2000a). The surface pressure was measured with a microtensiometer (Kibron Inc., Finland) specially designed for studying protein-lipid interactions (Fantini et al., 2000a). The experiments were carried at 25° C. out in a laboratory equipped with a filtered air supply. A solution of GalCer was prepared extemporaneously in hexane:chloroform:methanol, 11:5:4 (v:v:v) at a concentration of 1 mg/ml. The lipid was carefully spread onto the meniscus of a pure water subphase (800 μl). The proteic ligand (GPR15/Bob peptides or HIV-1 gp120) was injected into the subphase with a 10 μl Hamilton syringe. The surface pressure was continuously measured as a function of time until reaching equilibrium corresponding to the maximal surface presure increase (Δπmax) expressed in mN/m.
In a recent study, it was shown that the interaction between GalCer and gp120 purified from HIV-1(IIIB) was very efficient, whereas gp120s from 89.6 and SEN isolates interacted very weakly (Hammache et al., 1998). The kinetics of this interaction are an important physicochemical parameter allowing the direct comparison of GalCer recognition by various gp120s. In the experiment shown in FIG. 11, gp120 purified from IIIB, SEN, or 89.6 was injected underneath a monomolecular film of GalCer at the air-water interface. The GalCer film mimics the topology of a GalCer raft as it is organized in the external leaflet of the plasma membrane. For this reason, the Langmuir film balance technique is one of the most sensitive and reliable for studying protein-glycolipid interactions (Maggio et al., 1994). […] The surface increase indicates a condensing effect of the gp120 on the lipidic film due to its interaction with GalCer molecules (Hammache et al., 1998). […] At this time however, the level of interaction indicated by the absolute increase of the surface pressure was identical to the one of gp120(IIIB). […] The GalCer-binding capacity of gp120(SEN) was reevaluated and shown to occur much more slowly, but not less efficiently, than of gp120(IIIB).

[3] = test system: HT-29-D4 cells; assay: Cytoskeletal organization and ultrastructure of HT-29-D4 cells (confocal, electron microscopy); assay type: cell-based, human
Experimental: HT-29-D4 cells grown on glass coverslips were fixed with 4% paraformaldehyde (w/v) in 0.1M phosphate buffer, pH 7.4, for 30 min at room temperature. The cells were then treated with 50 mM […] (15 min), rinsed with phosphate buffer containing 1% bovine serum albumin (BSA), and permeabilized with 0.2% Triton X-100 in phosphate buffer containing 5% BSA (30 min). For α-tubulin staining, coverslips were incubated in a humid atmosphere at 4° C. for 4 hr with the primary antibody (5 μg/ml) in phosphate buffer containing 1% BSA. After washing, the cells were incubated with fluoresecin-conjugated secondary antibodies for 90 min at 4° C. The coverslips were mounted in a Mowiol solution and analyzed by confocal microscopy (Leica TCS inverted laser scanning microscope) as previously reported (Delézay et al., 1997b). […]
The α-tubulin labeling was particularly intense in the medium part of the cells where it formed a complex network of microtubules surrounding the nucleus (a, b). […] Therefore, the presence of such cysts in HT-29-D4 cell monolayer was carefully analyzed by single staining with rhodamine-plalloidin. […]
Next, the ultrastructural changes induced by HIV-1 in differentiated HT-29-D4 cells was analyzed. […] The main ultrastructural change during incubation with virions or gp120 was the presence of intra- and inter-cellular lumina that could be detected in about 5% of the cells. […]

[4] = test system: apical sodium/glucose cotransporter (SGLT1); assay: Sodium-dependent glucose transport activity (ΔIsc after α-methylglucose) in HT-29-D4 cells; assay type: cell-based, human; conditions: for ΔIsc after α-methylglucose treatment: 50 nM, 3 mM α-methylglucose
Experimental: HT-29-D4 cells were cultured in two-compartment cell culture chambers on a polycarbonate filter (Transwell-clear, Catalog No. 3450, Costar) and analyzed for electrical parameters in modified custom made Ussing chambers as previously reported (Fantini et al., 1989). The chamber was maintained at 37° C. on a hot plate. Apical and basal compartments were filled with electrophysiological medium: 137 mM NaCl, 5.36 mM KCl, 0.4 mM Na2HPO4, 0.8 mM MgCl2, 1.8 mM CaCl2, 20 mM N-2-hydroxyethylpiperazine-N′-2-ethanesulfonic acid (HEPES), pH 7.4. Transepithelial potential difference was measured with Ag electrodes and continuously recorded using a voltage clamp unit (Physiologic Instrument). Bipolar current pulses (20 μA for 2 s, every 30 s) were passed through Ag electrodes to measure the transepithelial resistance (TEER), which was determined according to the Ohm's law (Delézay et al., 1997b). The sodium-dependent electrogenic glucose transport activity was measured as an increase of short-circuit current (ΔIsc) following apical incubation of HT-29-D4 cells with the nonmetabolizable analog of glucose α-methylglucose (Fantini et al., 2000a). Except when indicated, purified gp120s were incubated in the apical compartment of the cell culture chamber (total volume 1.5 ml instead of 10 ml for the basal compartment of the Ussing chamber device unit).
Differentiated HT-29-D4 cells cultured in Transwell chambers were either not treated (control) or treated with 50 nM of purified gp120 (IIIB isolate) for the time indicated in serum-containing culture medium. Transepithelial resistance (TEER) values and short-circuit current variations (ΔIsc) after incubation with 3 mM α-methylglucose (sodium-dependent glucose transport activity) were measured as described in Materials and Methods. The results are expressed as the mean SD of 4 separate experiments.

## gp120(IIIB): surface envelope glycoprotein purified from HIV-1(IIIB) by lectin affinity chromatography
[1]; 16 hr
  TEER: 300 ± 108 Q · cm^2
[1]; 48 hr
  TEER: 320 ± 267 Q · cm^2
[1]; 20 min after addition, electrophysiological medium, n=3
  TEER enhancement (relative TEER): 1.60±0.17
[1]
  decrease of transepithelial resistance: greater than 80%
[1]; listed as gp120 (IIIB isolate)
  decrease of transepithelial resistance: 81%
[1]; after 48 hr
  decrease of TEER: 74%
[1]; continuous recording, electrophysiological medium
  time at which TEER had decreased to null values: 12 h
[2]
  interaction with GalCer film, in words: exponential increase in the surface pressure
  time to equilibrium of surface pressure: 45 min
[3]; 1 hr exposure
  cells with cysts / lumina: about 5%
[3]; 1 hr of incubation
  α-tubulin staining: dramatic decrease
[4]; 16 hr
  ΔIsc after α-methylglucose treatment: 0.35 ± 0.07 μA · cm^−2
[4]; 48 hr
  ΔIsc after α-methylglucose treatment: 0.29 ± 0.11 μA · cm^−2
[4]; after 16 hr
  reduction of SGLT1 electrogenic activity: 70%
[4]; after 48 hr
  decrease of SGLT1 activity: 80%
